# Where “and” joins values, the source holds several entries; their conditions need not be identical. Equal values may be shown once.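 Growth conditions: 96-well plates. Treatment: test compound, 48 hours, 5 concentrations. Analysis: linear interpolation between bracketing concentrations; unreached endpoints set to highest concentration. The concentration for 50% growth inhibition is given as GI50. TGI marks complete inhibition of growth.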
# System: MDA-MB-468 breast
# Experiment: NCI-60 cell line screen, 48 h
SMILES,GI50,TGI
CCOC(=O)Nc1ccc2nc(N3CCCCCC3)sc2c1,0.391 µM,3.11 µM
c1ccc(COCC[P+](c2ccccc2)(c2ccccc2)c2ccccc2)cc1,0.239 µM,1.95 µM
COc1ccc(C(C)=C(c2ccc(OCCN(C)C)cc2)c2ccc(OCCN(C)C)cc2)cc1,0.489 µM,1.44 µM
O=c1c2cccc(F)c2sc2c(NCCCNCCO)nc3ccccc3c12,1.63 µM,3.26 µM
Cc1cc(O[C@@H]2O[C@@H](C)[C@H](O)[C@@H](O)[C@H]2O)c2c3c(c(O[C@@H]4O[C@@H](C)[C@H](O)[C@@H](O)[C@H]4O)cc2c1)C(=O)c1c(O)cccc1C3=O,24.5 µM,> 30 µM
COc1ccc(CN2C(=O)/C(=C\C(=O)c3ccc(OCCN4CCCC4)cc3)c3ccccc32)cc1,2.07 µM,4.57 µM
O=C(NCCCl)NCCN1c2nc3ccccc3cc2Sc2cc3ccccc3nc21,1.43 µM,5.42 µM
CCCCCCCCCCCCNC(=O)N[C@H](C(=O)N[C@H]1/C=C/CCNC(=O)/C=C/[C@H](C)NC1=O)C(C)C,0.0531 µM,0.218 µM
CCCCOC(=O)/C=C\C(=O)NC(N)=O,4.29 µM,19.4 µM
CN(C)c1ccc(/C=C(\C#N)c2ccccc2)cc1,0.34 µM and 0.293 µM and 0.728 µM,–
NC(=O)c1cc(I)ccc1NC(=O)/C=C/c1ccccc1Cl,0.374 µM,7.67 µM
CC(C)(C)[Si](C)(C)OC1[C@@H](O[Si](C)(C)C(C)(C)C)[C@@H](CNC(=O)NC(=O)NC(=O)CCl)O[C@H]1n1cnc2c(NC(=O)Nc3ccccc3)ncnc21 (some centres undefined),3.91 µM,10.5 µM
COC1=CC(c2ccc[nH]2)=N/C1=C\c1[nH]c(C)c(C(=O)Oc2ccccc2)c1C,0.368 µM,1.94 µM
O=C(CN1CCN(CCN2C(=O)c3cccc4cccc(c34)C2=O)CC1)Nc1ccc2ncsc2c1,4.79 µM,22.3 µM
CCN(CC)S(=O)(=O)c1ccc(-c2nc(C(Cl)Cl)nc3cc(-c4ccc(F)cc4)nn23)cc1,1.78 µM,6.46 µM
CCC1=C[C@@H]2CN(C1)Cc1c([nH]c3ccccc13)[C@@](C(=O)OC)(c1cc3c(cc1OC)N(C)[C@H]1[C@@](O)(C(=O)OC)[C@H](OC(C)=O)[C@]4(CC)C=CCN5CC[C@]31[C@@H]54)C2,< 0.01 µM,17 µM
O=C(Nc1ccc(Oc2ccc(NC(=O)Nc3ccccc3Cl)cc2)cc1)Nc1ccccc1Cl,11 µM,49.6 µM
C[C@]12CCCN1CC1=NNC(=O)c3cc(F)cc4[nH]c2c1c34,13.5 µM,34.5 µM
NS(=O)(=O)c1ccc(N=Nc2c(O)[nH]c3ccc(C(=O)NCCc4cnc[nH]4)cc23)cc1,> 25 µM,> 25 µM
CCCCCCNC(=O)Oc1ccc(/C(=C(/C)c2ccc(Cl)cc2)c2ccc(OCCN3CCCC3)cc2)cc1,1.66 µM,3.17 µM
Cc1cncc(-c2nc(NCCc3c[nH]c4ccccc34)c3ncn(C(C)C)c3n2)c1,3.02 µM,10.9 µM
CS(=O)(=O)O[C@H]1C(=O)N(c2cc3c4ccccc4ccc3c3ccccc23)[C@@H]1c1ccccn1,0.269 µM,5.27 µM
CCC(CC)c1cc(N[C@H]2CC[C@H](N)C2)n2nccc2n1,0.438 µM,2.39 µM
Clc1ccc(C2CC(c3cccc(Nc4ccncc4)c3)=NN2c2ccccc2)cc1 (centres undefined),1.51 µM,3.05 µM
Cc1ccc(/C=C(/C#N)n2nnc3ncccc32)cc1,2.49 µM,11.2 µM
